Measurements as given in the METLIN SMRT retention time set (Domingo-Almenara et al. 2019).

assay: gradient 5% acetonitrile 3 min, to 50% in 2 min, to 85% in 15 min, held 3 min, 100 µL/min; details: column: Zorbax Extend-C18 2.1 x 50 mm; eluents: water / acetonitrile, 0.1% formic acid
How it was run: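 Using water and acetonitrile that each contained 0.1% formic acid, mixtures of ~100 pure standards were separated at 100 μL/min on a Zorbax Extend-C18 column (2.1 × 50 mm, 1.8 μm). The HPLC fed a quadrupole time-of-flight mass spectrometer working in positive and negative ionization mode, with dead and dwell volumes of 40 μL and 900 μL. Data were acquired over 3 months. Retention time was read from computationally picked adduct peaks after manual inspection of each.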

Row | SMILES | RP-LC retention time [s]
1 | Cc1ccc(N2CCC(NC(=O)C3CCCC3)C2=O)cc1 (stereo unspecified) | 762
2 | CN1Cc2ccccc2-n2ccnc2C12CCN(C(=O)c1ccc(Br)o1)CC2 | 615
3 | O=C1COc2cc(S(=O)(=O)N3CCCC3C(=O)NCc3ccc4c(c3)OCO4)c(Cl)cc2N1 (stereo unspecified) | 725
4 | Cc1cc(/C=C2\SC(=S)NC2=O)cc(C)c1O | 906
5 | CN1C(=O)[C@H]2CN(Cc3ccccc3Cl)C[C@H]2C1=O | 600
6 | O=S(=O)(c1ccc2c(c1)OCCO2)N1CC[C@@H]2COCCN(Cc3cccnc3)[C@@H]2C1 | 629
7 | CCOC(=O)Cn1nc2ccc(S(=O)(=O)N3CCSCC3)cn2c1=O | 765
8 | CC(C)n1nc(CNC(=O)C2CCC2)c2ccccc21 | 812
9 | CCN1CCC(N(Cc2ccc3c(c2)OCO3)C(=O)Nc2ccc(OC)cc2)CC1 | 641
10 | O=c1n(Cc2cccc(Br)c2)nc2ccc(S(=O)(=O)N3CCCC3)cn12 | 928
11 | COc1ccccc1C1(CNS(=O)(=O)c2cccc(Cl)c2C)CCOCC1 | 969
12 | O=C(NCCC1CCN(C(=O)Nc2ccc(F)cc2F)CC1)C1CCC1 | 720
13 | O=C(N1CCC(NS(=O)(=O)Cc2ccccc2)CC1)N1C[C@H]2C[C@H](C1)[C@H]1CCCC(=O)N1C2 | 649
14 | O[C@@H]1C[C@@H](c2nnc3n2CCN(Cc2ccccc2)C3)N(Cc2cccnc2)C1 | 563
15 | CCOC(=O)C1=C(CN(C)c2ccccc2)NC(=O)NC1c1ccc(C)cc1 (stereo unspecified) | 1020
16 | Cn1nc(C2CCCN2C(=O)C2(c3ccccc3)CC2)n(Cc2ccccc2)c1=O (stereo unspecified) | 830
17 | Cc1ccccc1S(=O)(=O)N1CCC(C(=O)NCCc2csc(-c3cccs3)n2)CC1 | 922
18 | CCc1nc2c(NC(=O)NCc3ccc(F)cc3)cccn2n1 | 788
19 | COc1ccccc1CCC(=O)NCc1cccnc1OC | 749
20 | N#Cc1c(N)sc2c1CCC(c1ccccc1)C2 (stereo unspecified) | 955
21 | O=C(c1cn(-c2cc(N3CCSCC3)ncn2)cn1)N1CCCCC1 | 789
22 | C=Cc1ccc(CN2C(=O)N(c3cccc(F)c3)c3ncccc3S2(=O)=O)cc1 | 834
23 | COc1ccc(CN2CCN(C(=O)C3=Cc4ccccc4OC3)CC2)c(OC)c1OC | 679
24 | Cc1cc(Br)ccc1NC(=O)C1CCN(C(=O)c2cccn2-c2cccnc2)CC1 | 763
25 | Cc1cc(-c2ccc(S(=O)(=O)N3CCC(C(=O)NC4CCCC4)CC3)o2)n[nH]1 | 737
26 | CC1(C(=O)NCc2ccccc2)Cn2cnc(C(=O)NCCc3ccccc3)c2C(=O)N1C1CC1 (stereo unspecified) | 754
27 | Cc1ncoc1C(=O)N[C@@H]1CN(S(C)(=O)=O)C[C@H]1CN(C)C | 516

Row | SMILES | RP-LC retention time [s]
28 | COC(=O)c1ncn2c1C(=O)N(Cc1ccccc1)C(C)(C(=O)NC1CCCCCC1)C2 (stereo unspecified) | 777
29 | CC12C(=O)N(c3nccs3)C(=O)C1(C)C1CCC2O1 (stereo unspecified) | 741
30 | CC(CCNC(=O)CN1C(=O)CCn2nc(-c3cn(C)c4ccccc34)cc21)N1CCCC1 (stereo unspecified) | 616
31 | COc1cccc(CN2CCCCCCNC(=O)[C@@H]3CCC[C@@H]32)n1 | 660
32 | O=C(NC1CCN(c2cc(-c3cccs3)[nH]n2)C1)c1cccc2[nH]ccc12 (stereo unspecified) | 672
33 | O=C1C(N2CCCN(S(=O)(=O)c3cccnc3)CC2)CCN1CC1CC1 (stereo unspecified) | 593
34 | CSc1cccc(NC(=O)NC2CCN(c3ccc(C)c(C)c3)C2=O)c1 (stereo unspecified) | 929
35 | Cc1scc2nc(C(=O)NC3CCCCC3)nc(N(C)C)c12 | 652
36 | CCc1ccc(S(=O)(=O)N2CCC3(CC2)C(=O)N(CC)c2ccccc23)cc1 | 1140
37 | CC(C)CNC(=O)C(=O)NCc1ccccn1 | 552
38 | CCOc1ccc(S(=O)(=O)N2CCCN(c3ccc(=O)n(-c4ccc(F)cc4)n3)CC2)cc1 | 885
39 | O=C(Nc1cccnc1OC1CCNCC1)C1(c2ccccc2)CC1 | 646
40 | CCN(Cc1ccccc1)C(=O)CN1C(=O)CCCc2cc(S(=O)(=O)N3CCOCC3)ccc21 | 825
41 | CCOC(=O)CNC(=O)NCC(=O)N1CCc2ccccc21 | 658
42 | O=C(Nc1ccc(N2CCOCC2)cc1)C1CCCN(c2ncc(-c3ccc(F)cc3)cn2)C1 (stereo unspecified) | 951
43 | O=C(Cn1ccc2ccccc21)Nc1ccccc1OC(F)(F)F | 610
44 | Cc1[nH]c(C)c(S(=O)(=O)N2CCC(C(=O)Nc3cccc(F)c3)CC2)c1C(=O)N1CCCC1 | 720
45 | O=C(Nc1cccc(C(F)(F)F)c1)Nc1cccn2ncnc12 | 896
46 | CCN1CCCn2nc(C3CCN(S(=O)(=O)c4ccc(C)c(C)c4)CC3)cc2C1=O | 891
47 | CCc1cccc(NC(=O)C2CCN(S(=O)(=O)c3ccc4c(c3)sc(=O)n4CC)CC2)c1 | 932
48 | O=C(NCc1nnnn1C1CCCCC1)c1ccc(Br)o1 | 738
49 | COc1cccc(N2CCN(CC(O)c3ccc(C)cc3)CC2)c1 (stereo unspecified) | 677
50 | Cc1ccc2c(C(=O)NCCN3CCCCC3)cc(NC(=O)C3CCC3)cc2n1 | 562
51 | CCn1c(=O)n(CC(=O)NCCC2=CCCCC2)c(=O)c2cnc(-c3ccccc3)nc21 | 1130
52 | COCCC(=O)Nc1cnn(-c2ncc(N3CCCCC3)cn2)c1 | 667
53 | CCc1nnc2ccc(NCC3CCCO3)nn12 (stereo unspecified) | 646

Next, values leading:

Row | RP-LC retention time [s] | SMILES
54 | 603 | Clc1ccc(Cl)c(-c2ccc(CNCCN3CCNCC3)o2)c1
55 | 799 | CNC(=O)N1c2ccccc2CC1c1nc(C(C)C)no1 (stereo unspecified)
56 | 1110 | CCOc1ccc(NC(=O)c2cn(-c3cc(N4CCC(C)CC4)ncn3)cn2)cc1
57 | 919 | Cc1ccc(CCC(=O)Nc2ccc(SC(F)F)cc2)o1
58 | 881 | Cn1c(C(=O)c2ccncc2)cc2ccccc21
59 | 1290 | Cc1nc2cc(-c3noc(-c4cc(Cl)ccc4Cl)n3)ccc2o1
60 | 981 | Cc1ccc(NC(=O)Cn2nc(C)cc2C(=O)Nc2cc(C)ccc2C)cc1
61 | 752 | Cn1c(=O)c2ccn(CC(=O)N3CCN(c4ccc(Cl)cc4)CC3)c2n(C)c1=O
62 | 843 | COc1c(C)cnc(Cn2ccn3nc(-c4ccc(F)cc4)c(CO)c3c2=O)c1C
63 | 788 | O=C(c1cnccn1)N1CCCn2nc(-c3ccc(Cl)cc3)cc2C1
64 | 733 | Cc1ccc(NC(=O)N2CCC(c3cc(N)on3)CC2)cc1F
65 | 983 | Cn1cnc(S(=O)(=O)N2CC(Oc3ccc(-c4nc(-c5ccccc5)no4)cc3)C2)c1
66 | 702 | COCCCNC(=O)Cn1cccc(-c2nc(-c3ccc(F)cc3)no2)c1=O
67 | 748 | O=C(Nc1c(-c2ccc(F)cc2)nc2ccccn12)c1cccc(C(F)(F)F)c1
68 | 1130 | Cc1ccc(OCc2nc(-c3cccc(-c4ccnn4C)c3)no2)cc1
69 | 930 | CCOc1ccc(N2C=C(C(=O)N3CCCC3)S(=O)(=O)c3ccc(Cl)cc32)cc1
70 | 765 | Cc1ccc(CNC(=O)c2ccc3c(c2)CC(=O)N3C)cc1C
71 | 718 | COc1cccc(S(=O)(=O)NCc2cccnc2-c2cccc(C)c2)c1
72 | 809 | Cc1nc(C(=O)Nc2ccccc2)c(C)o1

Row | RP-LC retention time [s] | SMILES
73 | 586 | CC(NC(=O)c1ccc(-c2ccnc(N3CCCC3)n2)cc1)c1cccnc1 (stereo unspecified)
74 | 988 | Cc1ccc(C(=O)Nc2ccc(OCc3nnc(-c4ccccc4)o3)cc2)s1
75 | 894 | CCn1cc(-c2nc(CC(=O)Nc3ccc(F)cc3)cs2)c2cccnc21
76 | 919 | COc1cccc(-c2ccnc3nc(-c4ccccc4)nn23)c1
77 | 664 | Cc1ccn2cc(-c3ccc(NC(=O)c4ccccc4C(F)(F)F)cc3)nc2n1
78 | 744 | O=C(COc1ccc(Cl)cc1)Nc1c(-c2ccc(F)cc2)nc2ccccn12
79 | 640 | O=C(O)c1nnn(-c2ccc3c(c2)OCCO3)c1-c1ccccn1
80 | 1180 | Cc1ccc(Nc2nc(-c3ccc(C)cc3)c(C)s2)cc1
81 | 767 | CCc1nc(-c2ccc(C(=O)N3CCN(C(=O)c4ccco4)CC3)cc2)cs1
82 | 1090 | COc1ccc2c(c1)CCc1sc(NC(=O)c3ccccc3F)nc1-2
83 | 678 | CCCNC(=O)Cn1ccc2ccc(-c3nnc(C)o3)cc21
84 | 719 | O=C(Nc1ccc2nncn2c1)c1ccc(Cl)cc1
85 | 868 | Cn1c(=O)c2cc(C(=O)Nc3ccc(F)cc3)cnc2n(-c2ccccc2)c1=O
86 | 672 | Nc1nc(SCc2ccccc2Cl)c2ncn(C3OC(CO)C(O)C3O)c2n1 (stereo unspecified)
87 | 923 | Cc1cc2nn(CC(=O)NCc3ccco3)c(=O)n2c(Nc2ccc(C)c(F)c2)n1
88 | 1030 | Cc1cc(C)cc(C(=O)Nc2ccc3c(c2)Sc2ncccc2C(=O)N3C(C)C)c1
89 | 861 | Cc1cccc(CN2CCCn3nc(C(=O)NCc4ccc5c(c4)OCO5)cc3C2=O)c1
90 | 736 | COc1ccc(CC(=O)N2CCCC2c2cc(C)on2)cc1 (stereo unspecified)
91 | 849 | Cc1ccc(NS(=O)(=O)c2cc3c(s2)CCN(C(=O)C2CC2)C3)cc1
